Results: the Kinase Knowledgebase extract (Sharma et al. 2016)

What was measured:
[1] = biological target: EGFR (human), P00533 [L858R]
[2] = biological target: EGFR (Human), P00533 [Assessment of EGFR-Del T790M Dependent Cell Proliferation in BaF3 Cells]
[3] = biological target: EGFR (Human), P00533 [T790M/L858R]
[4] = biological target: EGFR (Human), P00533 [T790M/L858R]; conditions: baf3
EGFR (human) = EGFR (human) (UniProt P00533)
Sequence of EGFR (human) (P00533 whole entry, looked up): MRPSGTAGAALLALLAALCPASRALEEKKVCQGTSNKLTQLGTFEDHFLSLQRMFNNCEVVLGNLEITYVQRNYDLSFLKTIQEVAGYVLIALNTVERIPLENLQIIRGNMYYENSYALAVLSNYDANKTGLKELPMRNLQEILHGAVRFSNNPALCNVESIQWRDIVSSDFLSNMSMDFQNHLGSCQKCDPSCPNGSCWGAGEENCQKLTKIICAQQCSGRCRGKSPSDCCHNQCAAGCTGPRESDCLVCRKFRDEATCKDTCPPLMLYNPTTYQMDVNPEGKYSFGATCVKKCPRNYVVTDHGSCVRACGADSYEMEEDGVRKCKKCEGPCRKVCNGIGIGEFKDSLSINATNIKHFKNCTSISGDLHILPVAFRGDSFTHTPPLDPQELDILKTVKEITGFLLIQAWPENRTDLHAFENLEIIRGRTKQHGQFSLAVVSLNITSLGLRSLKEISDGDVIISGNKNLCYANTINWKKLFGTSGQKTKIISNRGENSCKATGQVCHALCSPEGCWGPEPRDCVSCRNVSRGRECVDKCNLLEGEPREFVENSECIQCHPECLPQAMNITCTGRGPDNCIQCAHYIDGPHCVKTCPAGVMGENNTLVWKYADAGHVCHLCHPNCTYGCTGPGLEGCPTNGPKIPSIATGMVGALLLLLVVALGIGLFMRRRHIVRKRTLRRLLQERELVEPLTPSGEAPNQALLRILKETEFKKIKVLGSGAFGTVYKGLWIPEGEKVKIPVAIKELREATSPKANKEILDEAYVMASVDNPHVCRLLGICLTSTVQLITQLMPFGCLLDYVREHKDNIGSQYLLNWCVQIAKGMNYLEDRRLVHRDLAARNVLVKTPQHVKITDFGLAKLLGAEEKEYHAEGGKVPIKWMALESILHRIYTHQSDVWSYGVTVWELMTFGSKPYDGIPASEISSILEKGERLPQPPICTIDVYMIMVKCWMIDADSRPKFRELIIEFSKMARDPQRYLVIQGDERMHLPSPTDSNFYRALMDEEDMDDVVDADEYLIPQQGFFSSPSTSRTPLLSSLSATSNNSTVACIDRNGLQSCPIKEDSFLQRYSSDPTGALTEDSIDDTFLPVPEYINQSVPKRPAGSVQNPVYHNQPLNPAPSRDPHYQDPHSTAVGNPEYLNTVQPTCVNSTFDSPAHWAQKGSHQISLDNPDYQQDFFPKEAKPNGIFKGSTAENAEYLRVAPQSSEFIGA

Sequence of EGFR (human), P00533 [L858R] (P00533 whole entry L858R, looked up): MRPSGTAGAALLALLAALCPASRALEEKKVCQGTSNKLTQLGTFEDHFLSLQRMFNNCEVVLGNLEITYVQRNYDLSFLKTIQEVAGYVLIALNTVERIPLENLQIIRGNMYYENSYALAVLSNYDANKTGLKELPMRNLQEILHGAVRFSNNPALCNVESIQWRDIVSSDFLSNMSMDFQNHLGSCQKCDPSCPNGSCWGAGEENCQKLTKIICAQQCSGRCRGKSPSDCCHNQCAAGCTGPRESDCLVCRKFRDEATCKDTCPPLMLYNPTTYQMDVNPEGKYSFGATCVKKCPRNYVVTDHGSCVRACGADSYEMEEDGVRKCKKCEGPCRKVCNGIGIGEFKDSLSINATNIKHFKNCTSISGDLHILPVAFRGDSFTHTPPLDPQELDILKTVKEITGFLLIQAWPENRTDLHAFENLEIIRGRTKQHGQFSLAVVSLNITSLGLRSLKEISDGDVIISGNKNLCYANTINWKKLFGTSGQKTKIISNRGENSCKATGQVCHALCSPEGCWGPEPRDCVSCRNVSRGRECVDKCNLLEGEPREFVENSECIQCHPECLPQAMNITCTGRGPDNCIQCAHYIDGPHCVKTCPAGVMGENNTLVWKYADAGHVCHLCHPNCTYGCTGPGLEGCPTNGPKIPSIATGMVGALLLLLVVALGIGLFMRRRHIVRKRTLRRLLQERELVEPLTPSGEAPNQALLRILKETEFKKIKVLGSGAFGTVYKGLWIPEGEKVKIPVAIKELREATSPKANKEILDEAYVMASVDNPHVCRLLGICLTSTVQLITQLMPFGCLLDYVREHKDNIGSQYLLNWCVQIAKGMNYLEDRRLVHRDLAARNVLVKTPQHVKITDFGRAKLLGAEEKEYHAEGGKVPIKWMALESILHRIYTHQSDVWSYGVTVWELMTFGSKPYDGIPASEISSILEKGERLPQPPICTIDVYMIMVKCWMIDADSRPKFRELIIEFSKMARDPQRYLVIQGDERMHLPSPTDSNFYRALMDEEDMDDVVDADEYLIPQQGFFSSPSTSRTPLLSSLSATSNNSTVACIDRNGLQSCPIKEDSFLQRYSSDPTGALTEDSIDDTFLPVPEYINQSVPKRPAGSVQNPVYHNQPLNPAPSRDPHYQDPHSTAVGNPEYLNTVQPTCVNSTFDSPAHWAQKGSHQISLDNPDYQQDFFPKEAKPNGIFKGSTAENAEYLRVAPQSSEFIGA
Sequence of EGFR (Human), P00533 [T790M/L858R] (P00533 whole entry T790M/L858R, looked up): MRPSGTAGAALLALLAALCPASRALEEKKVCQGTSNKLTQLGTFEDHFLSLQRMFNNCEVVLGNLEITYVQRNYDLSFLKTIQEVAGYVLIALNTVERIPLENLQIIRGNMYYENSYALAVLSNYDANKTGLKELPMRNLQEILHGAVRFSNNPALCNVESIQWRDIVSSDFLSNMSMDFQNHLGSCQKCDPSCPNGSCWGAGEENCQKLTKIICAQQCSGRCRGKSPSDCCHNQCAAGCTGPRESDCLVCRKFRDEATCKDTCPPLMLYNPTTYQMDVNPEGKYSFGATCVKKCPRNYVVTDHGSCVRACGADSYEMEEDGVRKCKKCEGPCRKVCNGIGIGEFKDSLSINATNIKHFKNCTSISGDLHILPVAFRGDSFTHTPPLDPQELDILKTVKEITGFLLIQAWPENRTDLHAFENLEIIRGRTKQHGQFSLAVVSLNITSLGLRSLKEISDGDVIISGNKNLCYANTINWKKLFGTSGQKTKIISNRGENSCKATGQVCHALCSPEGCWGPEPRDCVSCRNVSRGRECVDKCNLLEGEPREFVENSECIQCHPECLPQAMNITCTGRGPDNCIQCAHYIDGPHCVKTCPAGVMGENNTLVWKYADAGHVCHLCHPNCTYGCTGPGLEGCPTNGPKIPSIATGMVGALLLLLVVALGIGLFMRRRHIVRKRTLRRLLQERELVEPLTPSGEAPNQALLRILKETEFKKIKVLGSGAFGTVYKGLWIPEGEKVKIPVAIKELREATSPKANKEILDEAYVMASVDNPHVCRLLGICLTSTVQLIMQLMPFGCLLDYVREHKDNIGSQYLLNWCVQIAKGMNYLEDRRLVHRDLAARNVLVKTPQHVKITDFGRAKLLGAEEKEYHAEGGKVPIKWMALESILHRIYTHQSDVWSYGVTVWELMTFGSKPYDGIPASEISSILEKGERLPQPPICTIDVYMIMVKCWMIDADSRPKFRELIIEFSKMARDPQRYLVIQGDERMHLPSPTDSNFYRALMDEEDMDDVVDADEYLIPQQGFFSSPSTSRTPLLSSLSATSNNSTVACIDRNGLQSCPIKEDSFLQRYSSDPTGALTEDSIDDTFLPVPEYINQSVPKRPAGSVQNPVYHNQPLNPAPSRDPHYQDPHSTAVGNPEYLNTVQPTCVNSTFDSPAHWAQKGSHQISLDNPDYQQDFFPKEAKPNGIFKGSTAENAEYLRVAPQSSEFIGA
Sequence of EGFR (Human), P00533 [Assessment of EGFR-Del T790M Dependent Cell Proliferation in BaF3 Cells] (P00533 whole entry, looked up, stated change not applied): as the sequence (P00533 whole entry, looked up) above

| Structure (SMILES) | IC50 [1] | IC50 [2] | IC50 [3] | IC50 [4] | IC50 (EGFR (human)) |
| --- | --- | --- | --- | --- | --- |
| COc1cc(N2CCOCC2)c(NC(=O)C#CCCN2CCCCC2)cc1Nc1ncc(Cl)c(Nc2ccccc2P(C)(C)=O)n1 | < 0.05 µM | < 0.05 µM | < 0.05 µM | < 0.05 µM | < 0.05 µM |
| C=CC(=O)Nc1cc(Nc2ncc(Cl)c(Nc3ccccc3P(C)(C)=O)n2)c(OC)cc1N1CCC(N2CCCC2)CC1 | < 0.05 µM | < 0.05 µM | < 0.05 µM | 0.101 to 0.25 µM | 0.05 to 0.1 µM |
| C=CC(=O)Nc1cc(Nc2ncc(Cl)c(Nc3ccccc3P(C)(C)=O)n2)c(OC)cc1C#CCN1CCCCC1 | < 0.05 µM | < 0.05 µM | < 0.05 µM | < 0.05 µM | < 0.05 µM |
| COCC#CC(=O)Nc1cc(Nc2ncc(Cl)c(Nc3ccccc3P(C)(C)=O)n2)c(OC)cc1N1CCC(N(C)C)C1 (stereo not given) | < 0.05 µM | < 0.05 µM | < 0.05 µM | < 0.05 µM | < 0.05 µM |
| COc1cc(N2CCOCC2)c(NC(=O)C#CCCN2CCN(C)CC2)cc1Nc1ncc(Cl)c(Nc2ccccc2P(C)(C)=O)n1 | < 0.05 µM | < 0.05 µM | < 0.05 µM | < 0.05 µM | < 0.05 µM |
| COCC1CCCN1CCC#CC(=O)Nc1cc(Nc2ncc(Cl)c(Nc3ccccc3P(C)(C)=O)n2)c(OC)cc1N1CCOCC1 (stereo not given) | < 0.05 µM | < 0.05 µM | < 0.05 µM | < 0.05 µM | < 0.05 µM |
| C=CC(=O)Nc1cc(Nc2ncc(Cl)c(Nc3ccccc3P(C)(C)=O)n2)c(OC)cc1C#CCN1CCCCCC1 | < 0.05 µM | < 0.05 µM | < 0.05 µM | < 0.05 µM | < 0.05 µM |
| COc1cc(F)c(NC(=O)C#CC(C)(C)N2CCCC2)cc1Nc1ncc(Cl)c(Nc2ccccc2P(C)(C)=O)n1 | < 0.05 µM | < 0.05 µM | < 0.05 µM | < 0.05 µM | < 0.05 µM |
| C=C(C)C(=O)Nc1cc(Nc2ncc(Cl)c(Nc3ccccc3P(C)(C)=O)n2)c(OC)cc1N1CC[C@@H](N(C)C)C1 | < 0.05 µM | < 0.05 µM | < 0.05 µM | < 0.05 µM | 0.101 to 0.25 µM |
| C=CC(=O)Nc1cc(Nc2ncc(Cl)c(Nc3ccccc3P(C)(C)=O)n2)c(OC)cc1N1CCC(N2CCC2)C1 (stereo not given) | < 0.05 µM | < 0.05 µM | < 0.05 µM | < 0.05 µM | < 0.05 µM |
| CC#CC(=O)Nc1cc(Nc2ncc(Cl)c(Nc3ccccc3P(C)(C)=O)n2)c(OC)cc1N1CCC(N2CCN(C)CC2)CC1 | < 0.05 µM | < 0.05 µM | < 0.05 µM | < 0.05 µM | 0.05 to 0.1 µM |
| C=C(CN1CCC(N2CCOCC2)CC1)C(=O)Nc1ccc(OC)c(Nc2ncc(Cl)c(Nc3ccccc3P(C)(C)=O)n2)c1 | < 0.05 µM | < 0.05 µM | < 0.05 µM | < 0.05 µM | < 0.05 µM |
| C=CC(=O)Nc1cc(Nc2ncc(Cl)c(Nc3ccccc3S(=O)(=O)C(C)C)n2)c(OC)cc1C#CCN(C)C | < 0.05 µM | < 0.05 µM | < 0.05 µM | < 0.05 µM | < 0.05 µM |

Results, then the molecule that gave them:

| IC50 [1] | IC50 [2] | IC50 [3] | IC50 [4] | IC50 (EGFR (human)) | Structure (SMILES) |
| --- | --- | --- | --- | --- | --- |
| < 0.05 µM | < 0.05 µM | < 0.05 µM | < 0.05 µM | < 0.05 µM | C=C(CN1CCC(O)C1)C(=O)Nc1ccc(OC)c(Nc2ncc(Cl)c(Nc3ccccc3P(C)(C)=O)n2)c1 (stereo not given) |
| < 0.05 µM | < 0.05 µM | < 0.05 µM | < 0.05 µM | < 0.05 µM | COc1cc(N2CCOCC2)c(NC(=O)C#CCCN(C)C)cc1Nc1ncc(Cl)c(Nc2ccccc2P(C)(C)=O)n1 |
| < 0.05 µM | < 0.05 µM | < 0.05 µM | 0.101 to 0.25 µM | 0.101 to 0.25 µM | C=CC(=O)Nc1ccc(Nc2ncc(Cl)c(Nc3cccc(OCCN4CCCCC4)c3P(C)(C)=O)n2)c(OC)c1 |
| < 0.05 µM | < 0.05 µM | < 0.05 µM | 0.101 to 0.25 µM | < 0.05 µM | C=C(Cl)C(=O)Nc1ccc(OC)c(Nc2ncc(Cl)c(Nc3ccccc3P(C)(C)=O)n2)c1 |
| < 0.05 µM | < 0.05 µM | < 0.05 µM | 0.05 to 0.1 µM | < 0.05 µM | C=CC(=O)Nc1cc(Nc2ncc(Cl)c(Nc3ccccc3P(C)(C)=O)n2)c(OC)cc1CN1CCN(C)CC1 |
| < 0.05 µM | < 0.05 µM | < 0.05 µM | < 0.05 µM | < 0.05 µM | C=CC(=O)Nc1cc(Nc2ncc(Cl)c(Nc3ccccc3P(C)(C)=O)n2)c(OC)cc1OC(COC)CN1CCC1 (stereo not given) |
| < 0.05 µM | < 0.05 µM | < 0.05 µM | < 0.05 µM | < 0.05 µM | C=CC(=O)Nc1cc(Nc2ncc(Cl)c(Nc3ccccc3P(C)(C)=O)n2)c(OC)cc1OC1CCCN(C)C1 (stereo not given) |
| < 0.05 µM | < 0.05 µM | < 0.05 µM | < 0.05 µM | < 0.05 µM | C=CC(=O)Nc1ccc(Cl)c(Nc2ncc(Cl)c(Nc3ccccc3P(C)(C)=O)n2)c1 |
| < 0.05 µM | < 0.05 µM | < 0.05 µM | < 0.05 µM | < 0.05 µM | C=CC(=O)Nc1cc(Nc2ncc(Cl)c(Nc3ccccc3P(C)(C)=O)n2)c(OC)cc1C#CCN1CCCC1 |
| < 0.05 µM | < 0.05 µM | < 0.05 µM | < 0.05 µM | < 0.05 µM | C=CC(=O)Nc1cc(Nc2ncc(Cl)c(Nc3ccccc3P(C)(C)=O)n2)c(C)cc1OC(COC)CN(C)C (stereo not given) |
| < 0.05 µM | < 0.05 µM | < 0.05 µM | < 0.05 µM | < 0.05 µM | COc1ccc(NC(=O)/C=C/CN2CCCCC2)cc1Nc1ncc(Cl)c(Nc2ccccc2P(C)(C)=O)n1 |
| < 0.05 µM | < 0.05 µM | < 0.05 µM | < 0.05 µM | < 0.05 µM | C=CC(=O)Nc1cc(Nc2ncc(Cl)c(Nc3ccccc3P(C)(C)=O)n2)c(OC)cc1C#CC(C)(C)N(CC)CC |
| < 0.05 µM | < 0.05 µM | < 0.05 µM | < 0.05 µM | < 0.05 µM | C=CC(=O)Nc1cc(Nc2ncc(Cl)c(Nc3ccccc3P(C)(C)=O)n2)c(OC)cc1OCC1CCCCN1C (stereo not given) |
| < 0.05 µM | 0.05 to 0.1 µM | < 0.05 µM | 0.101 to 0.25 µM | < 0.05 µM | C=CC(=O)Nc1cc(Nc2ncc(Cl)c(Nc3ccccc3P(C)(C)=O)n2)c(OC)cc1N1CCC(O)C1 (stereo not given) |
| < 0.05 µM | < 0.05 µM | < 0.05 µM | < 0.05 µM | < 0.05 µM | C=CC(=O)Nc1cc(Nc2ncc(Cl)c(Nc3ccccc3P(C)(C)=O)n2)c(OC)cc1C#CCN(C)C1CCCC1 |
| < 0.05 µM | < 0.05 µM | < 0.05 µM | < 0.05 µM | < 0.05 µM | C=CC(=O)Nc1ccc(OC)c(Nc2ncc(Cl)c(Nc3ccc(OCCCN(C)C)cc3P(C)(C)=O)n2)c1 |
| < 0.05 µM | < 0.05 µM | < 0.05 µM | 0.101 to 0.25 µM | < 0.05 µM | C=CC(=O)Nc1cc(Nc2ncc(Cl)c(Nc3ccccc3P(C)(C)=O)n2)c(OC)cc1OCc1ccncc1 |
| < 0.05 µM | < 0.05 µM | < 0.05 µM | < 0.05 µM | < 0.05 µM | C=CC(=O)Nc1cc(Nc2ncc(Cl)c(Nc3ccc(OCCN4CCCC4)cc3P(C)(C)=O)n2)c(OC)cc1F |
| < 0.05 µM | < 0.05 µM | < 0.05 µM | < 0.05 µM | < 0.05 µM | C=CC(=O)Nc1cc(Nc2ncc(Cl)c(Nc3ccccc3P(C)(C)=O)n2)c(OC)cc1C#CC(C)(C)N |
| < 0.05 µM | < 0.05 µM | < 0.05 µM | 0.101 to 0.25 µM | < 0.05 µM | C=CC(=O)Nc1cc(Nc2ncc(Cl)c(Nc3ccccc3P(C)(C)=O)n2)c(OC)cc1N1CCC(N(C)CCN(CC)CC)C1 (stereo not given) |
